Data reported in patent publication US11345681B1, “Inhibitors of fibroblast growth factor receptor kinases” (Kinnate Biopharma Inc., priority 2020, dated 2022).

Molecular target: Wild type FGFR2 (Homo sapiens (Human), UniProt P21802)
Assay: FGFR2 kinase assay (fluorescence-based microfluidic mobility shift assay)
Format: biochemical
Conditions: wild type FGFR2 0.06 nM, 100 μM ATP, 80 minutes at room temperature

Sequence of Wild type FGFR2 (P21802 22-821): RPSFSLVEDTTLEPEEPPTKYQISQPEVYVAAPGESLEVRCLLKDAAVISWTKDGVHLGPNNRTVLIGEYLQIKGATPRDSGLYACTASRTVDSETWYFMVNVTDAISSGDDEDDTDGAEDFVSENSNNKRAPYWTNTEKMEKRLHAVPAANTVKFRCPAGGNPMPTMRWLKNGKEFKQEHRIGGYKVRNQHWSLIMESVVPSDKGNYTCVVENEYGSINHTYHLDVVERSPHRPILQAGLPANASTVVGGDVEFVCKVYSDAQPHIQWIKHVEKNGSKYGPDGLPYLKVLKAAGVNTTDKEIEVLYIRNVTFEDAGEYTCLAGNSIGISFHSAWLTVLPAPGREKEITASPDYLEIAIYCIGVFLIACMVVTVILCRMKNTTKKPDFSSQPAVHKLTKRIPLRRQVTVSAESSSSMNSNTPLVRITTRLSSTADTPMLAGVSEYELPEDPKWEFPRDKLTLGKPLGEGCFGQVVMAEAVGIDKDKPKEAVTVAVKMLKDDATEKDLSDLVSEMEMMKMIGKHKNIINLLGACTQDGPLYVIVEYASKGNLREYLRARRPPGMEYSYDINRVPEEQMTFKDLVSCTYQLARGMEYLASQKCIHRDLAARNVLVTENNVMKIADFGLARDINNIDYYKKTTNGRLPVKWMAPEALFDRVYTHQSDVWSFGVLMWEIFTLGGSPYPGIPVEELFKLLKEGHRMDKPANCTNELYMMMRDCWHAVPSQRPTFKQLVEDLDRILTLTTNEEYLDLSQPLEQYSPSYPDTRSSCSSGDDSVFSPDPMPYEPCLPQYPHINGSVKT

SMILES | IC50 (given as numeric bound) [nM] | IC50 (class symbols) [nM]
C=CC(=O)N1C[C@@H](n2nc(C#Cc3c(F)cc4[nH]c(C5CC5)nc4c3F)c(C(N)=O)c2NC)C[C@@H]1COC [Example 61, 3-[2-(2-Cyclopropyl-4,6-difluoro-1H-1,3-benzodiazol-5-yl)ethynyl]-1-[(3S,5R)-5-(methoxymethyl)-1-(prop-2-enoyl)pyrrolidin-3-yl]-5-(methylamino)pyrazole-4-carboxamide] | – | ≤ 100
C=CC(=O)N1C[C@@H](n2nc(C#Cc3cc4nc(C5CC5)n(C)c4cc3F)c(C(N)=O)c2NC)C[C@@H]1COC [Example 62, 3-[2-(2-Cyclopropyl-6-fluoro-1-methyl-1,3-benzodiazol-5-yl)ethynyl]-1-[(3S,5R)-5-(methoxymethyl)-1-(prop-2-enoyl)pyrrolidin-3-yl]-5-(methylamino)pyrazole-4-carboxamide] | – | ≤ 100
C=CC(=O)N1C[C@@H](n2nc(C#Cc3ccc4cc(C)cnc4c3)c(C(N)=O)c2NC)C[C@@H]1COC [Example 65, 1-((3S,5R)-1-Acryloyl-5-(methoxymethyl)pyrrolidin-3-yl)-5-(methylamino)-3-((3-methylquinolin-7-yl)ethynyl)-1H-pyrazole-4-carboxamide] | – | ≤ 100
C=CC(=O)N1C[C@@H](n2nc(C#Cc3ccc4ccnn4c3)c(C(N)=O)c2NC)C[C@@H]1COC [Example 67, 1-[(3S,5R)-5-(Methoxymethyl)-1-(prop-2-enoyl)pyrrolidin-3-yl]-5-(methylamino)-3-(2-[pyrazolo[1,5-a]pyridin-6-yl]ethynyl)pyrazole-4-carboxamide] | – | ≤ 100
C=CC(=O)N1C[C@@H](n2nc(C#Cc3ccc4c(ncn4CC)c3F)c(C(N)=O)c2NC)C[C@@H]1COC [Example 68, 1-((3S,5R)-1-Acryloyl-5-(methoxymethyl)pyrrolidin-3-yl)-3-((1-ethyl-4-fluoro-1H-benzo[d]imidazol-5-yl)ethynyl)-5-(methylamino)-1H-pyrazole-4-carboxamide] | – | ≤ 100
C=CC(=O)N1C[C@@H](n2nc(C#Cc3ccc4nc(C)cnc4c3)c(C(N)=O)c2NC)C[C@@H]1COC [Example 69, 1-((3S,5R)-1-Acryloyl-5-(methoxymethyl)pyrrolidin-3-yl)-5-(methylamino)-3-((2-methylquinoxalin-6-yl)ethynyl)-1H-pyrazole-4-carboxamide] | – | ≤ 100
C=CC(=O)N1C[C@@H](n2nc(C#Cc3ccc4c(c3)ncn4C(F)F)c(C(N)=O)c2NC)C[C@@H]1COC [Example 70, 3-[2-[1-(Difluoromethyl)-1,3-benzodiazol-5-yl]ethynyl]-1-[(3S,5R)-5-(methoxymethyl)-1-(prop-2-enoyl)pyrrolidin-3-yl]-5-(methylamino)pyrazole-4-carboxamide] | – | ≤ 100
C=CC(=O)N1C[C@@H](n2nc(C#Cc3ccc4c(ncn4C)c3F)c(C(N)=O)c2NC)C[C@@H]1COC [Example 71, 1-((3S,5R)-1-Acryloyl-5-(methoxymethyl)pyrrolidin-3-yl)-3-((4-fluoro-1-methyl-1H-benzo[d]imidazol-5-yl)ethynyl)-5-(methylamino)-1H-pyrazole-4-carboxamide] | – | ≤ 100
C=CC(=O)N1C[C@@H](n2nc(C#Cc3ccn4c(C)cnc4c3)c(C(N)=O)c2NC)C[C@@H]1COC [Example 75, 1-[(3S,5R)-5-(Methoxymethyl)-1-(prop-2-enoyl)pyrrolidin-3-yl]-5-(methylamino)-3-(2-[3-methylimidazo[1,2-a]pyridin-7-yl]ethynyl)pyrazole-4-carboxamide] | – | ≤ 100
C=CC(=O)N1C[C@@H](n2nc(C#Cc3cc4ncn(C(F)F)c4cc3F)c(C(N)=O)c2NC)C[C@@H]1COC [Example 77, 3-[2-[1-(Difluoromethyl)-6-fluoro-1,3-benzodiazol-5-yl]ethynyl]-1-[(3S,5R)-5-(methoxymethyl)-1-(prop-2-enoyl)pyrrolidin-3-yl]-5-(methylamino)pyrazole-4-carboxamide] | – | ≤ 100
C=CC(=O)N1C[C@@H](n2nc(C#Cc3cc4ncn(CC)c4cc3F)c(C(N)=O)c2NC)C[C@@H]1COC(F)(F)F [Example 80, 3-[2-(1-Ethyl-6-fluoro-1,3-benzodiazol-5-yl)ethynyl]-5-(methylamino)-1-[(3S,5R)-1-(prop-2-enoyl)-5-[(trifluoromethoxy)methyl]pyrrolidin-3-yl]pyrazole-4-carboxamide] | – | ≤ 100
C=CC(=O)N1C[C@@H](n2nc(C#Cc3cc4nc(C)n(C)c4cc3Cl)c(C(N)=O)c2NC)C[C@@H]1COC [Example 82, 3-[2-(6-Chloro-1,2-dimethyl-1,3-benzodiazol-5-yl)ethynyl]-1-[(3S,5R)-5-(methoxymethyl)-1-(prop-2-enoyl)pyrrolidin-3-yl]-5-(methylamino)pyrazole-4-carboxamide] | – | ≤ 100
C=CC(=O)N1C[C@@H](n2nc(C#Cc3c(F)cc4c(ncn4C)c3F)c(C(N)=O)c2NC)C[C@@H]1COC(F)(F)F [Example 84] | – | ≤ 100
C=CC(=O)N1C[C@@H](n2nc(C#Cc3c(F)cc4c(ncn4CC)c3F)c(C(N)=O)c2NC)C[C@@H]1COC(F)(F)F [Example 85, 3-[2-(1-Ethyl-4,6-difluoro-1,3-benzodiazol-5-yl)ethynyl]-5-(methylamino)-1-[(3S,5R)-1-(prop-2-enoyl)-5-[(trifluoromethoxy)methyl]pyrrolidin-3-yl]pyrazole-4-carboxamide] | – | ≤ 100
C=CC(=O)N1C[C@@H](n2nc(C#Cc3cc4nc[nH]c4cc3F)c(C(N)=O)c2NC)C[C@@H]1COC(F)(F)F [Example 86, 3-[2-(6-Fluoro-1H-1,3-benzodiazol-5-yl)ethynyl]-5-(methylamino)-1-[(3S,5R)-1-(prop-2-enoyl)-5-[(trifluoromethoxy)methyl]pyrrolidin-3-yl]pyrazole-4-carboxamide] | – | ≤ 100

Next, values leading:

IC50 (given as numeric bound) [nM] | IC50 (class symbols) [nM] | SMILES
> 500 | – | C=CC(=O)N1C[C@@H](n2nc(C#Cc3cnc4nccn4c3)c(C(N)=O)c2NC)C[C@@H]1COC [Example 57, 3-(2-[Imidazo[1,2-a]pyrimidin-6-yl]ethynyl)-1-[(3S,5R)-5-(methoxymethyl)-1-(prop-2-enoyl)pyrrolidin-3-yl]-5-(methylamino)pyrazole-4-carboxamide]
> 500 | – | C=CC(=O)N1C[C@@H](n2nc(C#Cc3ccn4ccnc4n3)c(C(N)=O)c2NC)C[C@@H]1COC [Example 58, 3-(2-[Imidazo[1,2-a]pyrimidin-7-yl]ethynyl)-1-[(3S,5R)-5-(methoxymethyl)-1-(prop-2-enoyl)pyrrolidin-3-yl]-5-(methylamino)pyrazole-4-carboxamide]
> 500 | – | C=CC(=O)N1C[C@@H](n2nc(C#Cc3cc4nc(C5CC5)n(C)c4cn3)c(C(N)=O)c2NC)C[C@@H]1COC [Example 63, 3-(2-[2-Cyclopropyl-3-methylimidazo[4,5-c]pyridin-6-yl]ethynyl)-1-[(3S,5R)-5-(methoxymethyl)-1-(prop-2-enoyl)pyrrolidin-3-yl]-5-(methylamino)pyrazole-4-carboxamide]
– | ≤ 100 | C=CC(=O)N1C[C@@H](n2nc(C#Cc3ccc4nccnc4c3)c(C(N)=O)c2NC)C[C@@H]1COC [Example 64, 1-[(3S,5R)-5-(Methoxymethyl)-1-(prop-2-enoyl)pyrrolidin-3-yl]-5-(methylamino)-3-[2-(quinoxalin-6-yl)ethynyl] pyrazole-4-carboxamide]
– | ≤ 100 | C=CC(=O)N1C[C@@H](n2nc(C#Cc3ccc4ncc(C)nc4c3)c(C(N)=O)c2NC)C[C@@H]1COC [Example 72, 1-((3S,5R)-1-Acryloyl-5-(methoxymethyl)pyrrolidin-3-yl)-5-(methylamino)-3-((3-methylquinoxalin-6-yl)ethynyl)-1H-pyrazole-4-carboxamide]
– | ≤ 100 | C=CC(=O)N1C[C@@H](n2nc(C#Cc3ccc4ncn(C(F)F)c4c3)c(C(N)=O)c2NC)C[C@@H]1COC [Example 73, 3-[2-[3-(Difluoromethyl)-1,3-benzodiazol-5-yl]ethynyl]-1-[(3S,5R)-5-(methoxymethyl)-1-(prop-2-enoyl)pyrrolidin-3-yl]-5-(methylamino)pyrazole-4-carboxamide]
– | ≤ 100 | C=CC(=O)N1C[C@@H](n2nc(C#Cc3ccc4c(C)ccnc4c3)c(C(N)=O)c2NC)C[C@@H]1COC [Example 74, 1-[(3S,5R)-5-(Methoxymethyl)-1-(prop-2-enoyl)pyrrolidin-3-yl]-5-(methylamino)-3-[2-(4-methylquinolin-7-yl)ethynyl]pyrazole-4-carboxamide]
– | ≤ 100 | C=CC(=O)N1C[C@@H](n2nc(C#Cc3cc4c(cc3F)ncn4C(F)F)c(C(N)=O)c2NC)C[C@@H]1COC [Example 76, 3-[2-[3-(Difluoromethyl)-6-fluoro-1,3-benzodiazol-5-yl]ethynyl]-1-[(3S,5R)-5-(methoxymethyl)-1-(prop-2-enoyl)pyrrolidin-3-yl]-5-(methylamino)pyrazole-4-carboxamide]
– | ≤ 100 | C=CC(=O)N1C[C@@H](n2nc(C#Cc3cc4ncn(C)c4cc3F)c(C(N)=O)c2NC)C[C@@H]1COC(F)(F)F [Example 79, 3-[2-(6-Fluoro-1-methyl-1,3-benzodiazol-5-yl)ethynyl]-5-(methylamino)-1-[(3S,5R)-1-(prop-2-enoyl)-5-[(trifluoromethoxy)methyl]pyrrolidin-3-y]pyrazole-4-carboxamide]
– | ≤ 100 | C=CC(=O)N1C[C@@H](n2nc(C#Cc3cc4ncn(C(F)F)c4cc3F)c(C(N)=O)c2NC)C[C@@H]1COC(F)(F)F [Example 81, 3-[2-[1-(Difluoromethyl)-6-fluoro-1,3-benzodiazol-5-yl]ethynyl]-5-(methylamino)-1-[(3S,5R)-1-(prop-2-enoyl)-5-[(trifluoromethoxy)methyl]pyrrolidin-3-yl]pyrazole-4-carboxamide]
– | ≤ 100 | C=CC(=O)N1C[C@@H](n2nc(C#Cc3ccc4ccc(C)nc4c3)c(C(N)=O)c2NC)C[C@@H]1COC [Example 83, 1-[(3S,5R)-5-(Methoxymethyl)-1-(prop-2-enoyl)pyrrolidin-3-yl]-5-(methylamino)-3-[2-(2-methylquinolin-7-yl)ethynyl]pyrazole-4-carboxamide]
– | ≤ 100 | C=CC(=O)N1C[C@@H](n2nc(C#Cc3cc4nc(C)[nH]c4cc3Cl)c(C(N)=O)c2NC)C[C@@H]1COC(F)(F)F [Example 87, 3-[2-(6-Chloro-2-methyl-1H-1,3-benzodiazol-5-yl)ethynyl]-5-(methylamino)-1-[(3S,5R)-1-(prop-2-enoyl)-5-[(trifluoromethoxy)methyl]pyrrolidin-3-yl]pyrazole-4-carboxamide]
